Drawing on patent publication US20040082477A1, “Pyrrolecarboxamides for the use as fungicdes” (priority 2001, published 2004), this text covers melting point for one compound.

Structures are written as SMILES.

`Cn1cc(C(=O)Nc2ccccc2-c2ccc(Br)cc2)c(C(F)F)c1` [Compound 1.2, 1-methyl-4-difluoromethyl-1H-pyrrole-3-carboxylic acid (4′-bromobiphenyl-2-yl) amide]: the melting point was in the range of 166 to 167 °C.

A word on the melting point: it is the temperature, or range, at which the solid turns liquid.
